Test results from article PMC5885780, “Sub-nanosecond tryptophan radical deprotonation mediated by a protein-bound water cluster in class II DNA photolyases” (Chemical Science, 2017).

Legend:
Assay in all cases: UV/vis and transient absorption of co-purified protein-bound FAD
Format in all cases: binding
Details in all cases: pH 8.0, 10 mM Tris-HCl, 100 mM NaCl, 10% glycerol, 7 °C; oxidized FAD; free FAD removed by size-exclusion column
[1] = target: T1, MmCPDII (class II CPD photolyase) (Methanosarcina mazei, UniProt Q8PYK9, W388F)
T1 construct: gene MM_0852; full-length from pET-28a-MmCPDII, E. coli BL21-Gold(DE3), NiNTA and SEC

[2] = target: T2, MmCPDII (class II CPD photolyase) (Methanosarcina mazei, UniProt Q8PYK9, Y345F)
T2 construct: gene MM_0852; full-length from pET-28a-MmCPDII, E. coli BL21-Gold(DE3), NiNTA and SEC

[3] = target: T3, MmCPDII (class II CPD photolyase) (Methanosarcina mazei, UniProt Q8PYK9)
T3 construct: gene MM_0852; full-length from pET-28a-MmCPDII, E. coli BL21-Gold(DE3), NiNTA and SEC

[4] = target: T4, MmCPDII (class II CPD photolyase) (Methanosarcina mazei, UniProt Q8PYK9, E387Q)
T4 construct: gene MM_0852; full-length from pET-28a-MmCPDII, E. coli BL21-Gold(DE3), NiNTA and SEC

Cc1cc2nc3c(=O)[nH]c(=O)nc-3n(C[C@H](O)[C@H](O)[C@H](O)COP(=O)(O)OP(=O)(O)OC[C@H]3O[C@@H](n4cnc5c(N)ncnc54)[C@H](O)[C@@H]3O)c2cc1C [FAD]
UV/vis and transient absorption of co-purified protein-bound FAD [1]: Isolated MmCPDII photolyase (WT, as well as all mutants studied here) contains a fully oxidized FAD | UV/vis and transient absorption of co-purified protein-bound FAD [2]: Isolated MmCPDII photolyase (WT, as well as all mutants studied here) contains a fully oxidized FAD | UV/vis and transient absorption of co-purified protein-bound FAD [3]: Isolated MmCPDII photolyase (WT, as well as all mutants studied here) contains a fully oxidized FAD | UV/vis and transient absorption of co-purified protein-bound FAD [4]: Isolated MmCPDII photolyase (WT, as well as all mutants studied here) contains a fully oxidized FAD
